Reference: patent publication US20230330229A1, “METHODS FOR IMAGE-GUIDED RADIOTHERAPY” (UNIVERSITE CLAUDE BERNARD LYON 1, priority 2020, published 2023)

Tests used:
[1] = magnetic field of 3 Tesla, literature reference; cited from earlier work
brain metastases = assay: MRI signal enhancement in brain metastases (Nano-Rad phase I-b trial, 3 Tesla, 3D T1-weighted); assay type: in vivo, human; conditions: D0, 15 min after injection, 0.1 mmol/kg i.v., metastases >1 cm
Source text: This study is part of a prospective dose escalation phase I-b clinical trial to evaluate the tolerance of the intravenous administration of radiosensitizing AGuIX nanoparticles in combination with whole brain radiotherapy for the treatment of brain metastases. The Nano-Rad trial (Radiosensitization of Multiple Brain Metastases Using AGuIX Gadolinium Based Nanoparticles) was registered as NCT02820454. Here, we report the findings of the MRI protocol applied to the 15 recruited patients. […]
MRI analyses were performed using an in-house computer program called MP3 (https://github.com/nifm-gin/MP3) developed by the GIN Laboratory (Grenoble, France) and running under Matlab® software. Image analyses include counting and measurements of metastases, quantification of contrast enhancement, relaxation times and concentration of nanoparticles. […] The MRI enhancement, expressed in percentage, was defined as the ratio of the MRI signal amplitude post contrast agent administration over the MRI signal amplitude pre contrast agent administration; the MRI signal amplitude being measured in the 3D T1-weighted image dataset. […]

[2] = Detection of solutions in Eppendorf by MRIdian MR-linac at 0.35 T; conditions: spin echo, solutions in PPI water
Protocol: ViewRay Linac MRI displaying magnetic field of 0.35 T (MRIdian MR-linac, ViewRay Inc., Oakwood, USA) (S. Klüter, Clinical and Translational Radiation Oncology, 2019), samples with different concentrations in gadolinium were tested and compared to Multihance (Bracco) using the Torso coil (two surface flexible 6-channel coils array).
The ViewRay MRIdian system is clinically used for external radiotherapy purpose, thus it is a very appropriate device dedicated to the use of the AGuIX. A 2D coronal spin echo sequence was used: TR=400 ms, TE=20 ms, Flip Angle=90°, Bandwidth=57. Hz/Px, Matrix=512×512, Slice Thickness=3 mm, Field Of View=350×350×263 mm, Number of Averages=5. The total acquisition time was 12:30 minutes.
Solutions of multihance and AGuIX were prepared by dilution in PPI water from stock solutions of 0.5 mol·L^−1 and 100 g·L^−1 respectively 1 hour before imaging and placed in Eppendorf.

| SMILES | r1 per Gd^3+ ion [1] [mM⁻¹ s⁻¹] | MRI enhancement averaged over all measurable metastases (brain metastases) [%] | Detection sensitivity (lowest detected [Gd^3+]) [2] [µM] |
| --- | --- | --- | --- |
| CNC[C@H](O)[C@@H](O)[C@H](O)[C@H](O)CO.O=C([O-])CN1CCN(CC(=O)[O-])CCN(CC(=O)O)CCN(CC(=O)[O-])CC1.[Gd+3] [Dotarem, gadoterate meglumine] | 3.5 | 182.9±116.2 |  |
| O=C([O-])CN(CCN(CC(=O)[O-])CC(=O)[O-])CCN(CC(=O)[O-])C(COCc1ccccc1)C(=O)[O-].[Gd+3].[H+].[H+] (stereo not drawn) [Multihance, gadobenic acid] |  |  | 25 |
